Laboratory results reported in the NIST ThermoML archive (doi:10.1016/j.fluid.2008.11.013).
± gives the expanded uncertainty stated by the source.

Settings: 101.33 kPa, Liquid, Vibrating tube method

## CCCCCCCC[N+]1(C)CCCC1.O=S(=O)([N-]S(=O)(=O)C(F)(F)F)C(F)(F)F
298.15 K
  mass density: 1291.2 ± 12 kg/m3
303.15 K
  mass density: 1286.9 ± 12 kg/m3
308.14 K
  mass density: 1283 ± 12 kg/m3
313.15 K
  mass density: 1279.1 ± 12 kg/m3
318.15 K
  mass density: 1275.1 ± 11 kg/m3
323.14 K
  mass density: 1271.4 ± 11 kg/m3
328.14 K
  mass density: 1267.5 ± 11 kg/m3
333.14 K
  mass density: 1263.7 ± 11 kg/m3
338.14 K
  mass density: 1259.7 ± 11 kg/m3
343.14 K
  mass density: 1255.7 ± 11 kg/m3
348.15 K
  mass density: 1251.7 ± 11 kg/m3

## CCCCCC[N+]1(C)CCCC1.O=S(=O)([N-]S(=O)(=O)C(F)(F)F)C(F)(F)F
278.16 K
  mass density: 1352.1 ± 13 kg/m3
283.14 K
  mass density: 1347.7 ± 13 kg/m3
288.14 K
  mass density: 1343.4 ± 13 kg/m3
293.15 K
  mass density: 1339.5 ± 13 kg/m3
298.14 K
  mass density: 1335.3 ± 13 kg/m3
303.14 K
  mass density: 1331.1 ± 12 kg/m3
308.14 K
  mass density: 1326.8 ± 12 kg/m3
313.14 K
  mass density: 1322.6 ± 12 kg/m3
318.14 K
  mass density: 1318.3 ± 12 kg/m3
323.14 K
  mass density: 1314.1 ± 12 kg/m3
328.14 K
  mass density: 1309.9 ± 12 kg/m3
333.14 K
  mass density: 1305.6 ± 12 kg/m3
338.15 K
  mass density: 1301.4 ± 12 kg/m3
343.14 K
  mass density: 1297.1 ± 12 kg/m3
